Test results from article PMC9731865, “Gambogic acid and juglone inhibit RNase P through distinct mechanisms” (The Journal of Biological Chemistry, 2022).

Columns and labels:
human MRPP1/2/3 = target: T1, human MRPP1/2/3 (Homo sapiens, UniProt O15091); assay: Human mitochondrial RNase P (MRPP1/2/3) activity assay; type: biochemical; conditions: 30 min preincubation; 50 nM MRPP3, 500 nM MRPP1/2, 500 nM pre-tRNA, 37 °C; apparent IC50 for juglone
T1 construct: N-terminal truncation (residues 46–583, Δ45MRPP3); His6 (N, cleaved yes); made in house; host or cells: Rosetta (DE3) / Rosetta2 (DE3) E. coli
T1 sequence (O15091 46-583): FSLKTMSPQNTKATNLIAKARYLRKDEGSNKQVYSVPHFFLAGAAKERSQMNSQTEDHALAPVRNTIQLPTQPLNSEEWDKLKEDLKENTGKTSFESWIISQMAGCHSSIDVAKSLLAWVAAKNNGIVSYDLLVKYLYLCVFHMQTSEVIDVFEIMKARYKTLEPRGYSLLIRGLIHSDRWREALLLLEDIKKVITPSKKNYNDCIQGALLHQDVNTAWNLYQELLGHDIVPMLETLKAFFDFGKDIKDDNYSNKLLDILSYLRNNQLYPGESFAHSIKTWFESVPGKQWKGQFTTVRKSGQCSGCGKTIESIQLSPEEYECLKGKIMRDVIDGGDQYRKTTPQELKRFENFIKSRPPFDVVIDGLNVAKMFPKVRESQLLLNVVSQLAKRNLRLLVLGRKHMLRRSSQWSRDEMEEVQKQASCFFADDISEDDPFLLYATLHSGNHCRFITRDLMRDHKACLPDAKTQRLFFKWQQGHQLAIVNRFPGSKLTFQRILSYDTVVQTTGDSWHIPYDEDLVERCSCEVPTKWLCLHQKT
Experimental: Figure 4 Gambogic acid and juglone inhibit A. thaliana PRORP1 (green), human MRPP1/2/3 (red), and B. subtilis RNase P (blue). Compounds gambogic acid (A) and juglone (B) were incubated with enzyme at double the reaction concentration for 30 min prior to the addition of an equal volume of substrate to initiate the reaction. PRORP1 reactions (shown in green) were performed with 0.3 nM PRORP1 and 800 nM pre-tRNA containing 40 nM Fl-pre-tRNA at 25 °C in 30 mM MOPS pH 7.8, 5 mM MgCl2, 100 mM NaCl, 1 mM TCEP, 500 nM (12 μg/ml) yeast tRNA, 5 mM spermidine, 6.65 μg/ml BSA, and 0.01% NP-40. MRPP1/2/3 reactions (shown in red) were performed using 50 nM MRPP3, 500 nM MRPP1/2, 500 nM pre-tRNA containing 40 nM Fl-pre-tRNA at 37 °C in 50 mM MOPS (pH 7.8), 1 mM TCEP, 4.5 mM MgCl2, and 100 mM NaCl. […]
The inhibition of human MRPP1/2/3 by gambogic acid and juglone was evaluated via dose–response using a quenched assay. Human MRPP1/2/3 activity was measured as a function of gambogic acid and juglone concentration using 50 nM MRPP3, 500 nM MRPP1/2, 500 nM pre-tRNA containing 40 nM Fl-pre-tRNA in 50 mM MOPS (pH 7.8), 4.5 mM MgCl2, 100 mM NaCl, and 1 mM TCEP (pH 7.5). […] Samples were separated by 20% Urea PAGE (Ultra Pure SequaGel), fluorescence signal was quantified using ImageJ, and the data were analyzed using Prism. […]

B. subtilis RNase P = target: T2, B. subtilis RNase P (Bacillus subtilis, UniProt P25814); assay: B. subtilis RNase P activity assay (FP, real-time); type: biochemical
T2 construct: made in house
Experimental: Figure 4 Gambogic acid and juglone inhibit A. thaliana PRORP1 (green), human MRPP1/2/3 (red), and B. subtilis RNase P (blue). Compounds gambogic acid (A) and juglone (B) were incubated with enzyme at double the reaction concentration for 30 min prior to the addition of an equal volume of substrate to initiate the reaction. PRORP1 reactions (shown in green) were performed with 0.3 nM PRORP1 and 800 nM pre-tRNA containing 40 nM Fl-pre-tRNA at 25 °C in 30 mM MOPS pH 7.8, 5 mM MgCl2, 100 mM NaCl, 1 mM TCEP, 500 nM (12 μg/ml) yeast tRNA, 5 mM spermidine, 6.65 μg/ml BSA, and 0.01% NP-40. MRPP1/2/3 reactions (shown in red) were performed using 50 nM MRPP3, 500 nM MRPP1/2, 500 nM pre-tRNA containing 40 nM Fl-pre-tRNA at 37 °C in 50 mM MOPS (pH 7.8), 1 mM TCEP, 4.5 mM MgCl2, and 100 mM NaCl. B. subtilis RNase P reactions (shown in blue) were performed using 20 nM RNase P and 500 nM pre-tRNA containing 40 nM Fl-pre-tRNA at 37 °C in 50 mM Tris, pH 7.2, 5 mM MgCl2, 100 mM KCl, 500 nM (12 μg/ml) yeast tRNA, 20 mM dithiothreitol (DTT), 10 mM spermidine, and 0.01% NP-40. Equation 1 was fit to each dataset.
The inhibition of B. subtilis RNase P activity by gambogic acid and juglone was measured using a previously developed FP assay in real-time.^25 Reactions were performed under multiple turnover conditions using 20 nM RNase P and 500 nM Fl-pre-tRNA^Asp in 50 mM Tris (pH 7.2), 5 mM MgCl2, 100 mM KCl, 500 nM (12 μg/ml) yeast tRNA^mix, 20 mM dithiothreitol, 10 mM spermidine, and 0.01% NP-40 at 37 °C.

T2 sequence (P25814 whole entry): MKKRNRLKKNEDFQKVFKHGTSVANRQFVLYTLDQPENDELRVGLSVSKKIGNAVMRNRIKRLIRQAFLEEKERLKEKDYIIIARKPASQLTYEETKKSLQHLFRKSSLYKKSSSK

| SMILES | IC50 (human MRPP1/2/3) | IC50 (B. subtilis RNase P) |
| --- | --- | --- |
| CC(C)=CCC[C@]1(C)C=Cc2c(O)c3c(c(CC=C(C)C)c2O1)O[C@]12C(=C[C@@H]4C[C@H]1C(C)(C)O[C@@]2(C/C=C(/C)C(=O)O)C4=O)C3=O [gambogic acid] | 260 ± 60 nM | 50000 ± 2000 nM |
| O=C1C=CC(=O)c2c(O)cccc21 [juglone, 5-hydroxy-1,4-naphthalenedione] | 1800 ± 40 nM | > 500000 nM |
